From patent US20040029823A1, “Antisense oligonucleotide compositions and methods for the modulation of JNK proteins” (priority 1997, published 2004)
Strand notation (5' to 3'): a small letter for the sugar, then the base; units joined by * are phosphorothioate-linked, units joined directly phosphodiester-linked; [ ] holds rarer units or linkages, { } end groups; capitals alone tell only the bases. e = 2'-O-(2-methoxyethyl) (MOE); [5mC] = 5-methylcytosine; d = 2'-deoxy (DNA)

Test system: JNK2 mRNA
Test: Northern assay of JNK2 mRNA expression in A549 cells
Assay type: cell-based, human
Conditions: for % EXPRESSION: relative to LIPOFECTIN-only control
Procedure: In order to evaluate the activity of potential JNK-modulating oligonucleotides, human lung carcinoma cell line A549 (American Type Culture Collection, Rockville, Md. No. ATCC CCL-185) cells or other cell lines as indicated in the Examples, were grown and treated with oligonucleotides or control solutions as detailed below. After harvesting, cellular extracts were prepared and examined for specific JNK mRNA levels or JNK protein levels (i.e., Northern or Western assays, respectively). In all cases, “% expression” refers to the amount of JNK-specific signal in an oligonucleotide-treated cell relative to an untreated cell (or a cell treated with a control solution that lacks oligonucleotide), and “% inhibition” is calculated as
100%−% Expression =% Inhibition.
Northern Assays: The mRNA expression of each JNK protein was determined by using a nucleic acid probe specifically hybridizable thereto. Nucleic acid probes specific for JNK1, JNK2 and JNK3 are described in Examples 3, 4 and 5, respectively. The probes were radiolabelled by means well known in the art (see, e.g., Short Protocols in Molecular Biology, 2nd Ed., Ausubel et al., Eds., John Wiley & Sons, New York, 1992, pages 3-11 to 2-3-44 and 4-17 to 4-18; Ruth, Chapter 6 In: Methods in Molecular Biology, Vol. 26: Protocols for Oligonucleotide Conjugates, Agrawal, ed., Humana Press Inc., Totowa, N.J., 1994, pages 167-185; and Chapter 10 In: Molecular Cloning: A Laboratory Manual, 2nd Ed., Sambrook et al., Eds., pages 10.1-10.70). The blots were stripped and reprobed with a ^32P-labeled glyceraldehyde 3-phosphate dehydrogenase (G3PDH) probe (Clontech Laboratories, Inc., Palo Alto, Calif.) in order to confirm equal loading of RNA and to allow the levels of JNK transcripts to be normalized with regard to the G3PDH signals.
A549 cells were grown in T-75 flasks until 80-90% confluent. At this time, the cells were washed twice with 10 mL of media (DMEM), followed by the addition of 5 mL of DMEM containing 20 μg/mL of LIPOFECTIN™ (i.e., 1:1 (w/w) DOTMA/DOPE, Life Technologies, Gaithersburg, Md.; DOTMA=N-[1-(2,3-dioleyoxy)propyl]-N,N,N-trimethylammonium chloride; DOPE=dioleoyl phosphatidylethanolamine). The oligonucleotides were added from a 10 μM stock solution to a final concentration of 400 nM, and the two solutions were mixed by swirling the flasks. As a control, cells were treated with LIPOFECTIN™ without oligonucleotide under the same conditions and for the same times as the oligonucleotide-treated samples. After 4 hours at 37° C., the medium was replaced with fresh DMEM containing 10% serum. The cells were allowed to recover for 18 hours. Total cellular RNA was then extracted in guanidinium, subject to gel electrophoresis and transferred to a filter according to techniques known in the art (see, e.g., Chapter 7 In: Molecular Cloning: A Laboratory Manual, 2nd Ed., Sambrook et al., Eds., pages 7.1-7.87, and Short Protocols in Molecular Biology, 2nd Ed., Ausubel et al., Eds., John Wiley & Sons, New York, 1992, pages 2-24 to 2-30 and 4-14 to 4-29). Filters were typically hybridized overnight to a probe specific for the particular JNK gene of interest in hybridization buffer (25 mM KPO4, pH 7.4; 5×SSC; 5× Denhardt's solution, 100 μg/ml Salmon sperm DNA and 50% formamide) (Alahari et al., Nucl. Acids Res., 1993, 21, 4079). This was followed by two washes with 1×SSC, 0.1% SDS and two washes with 0.25×SSC, 0.1% SDS. Hybridizing bands were visualized by exposure to X-OMAT AR film and quantitated using a PHOSPHORIMAGER™ essentially according to the manufacturer's instructions (Molecular Dynamics, Sunnyvale, Calif.)
B. JNK2-specific probes: In initial screenings of a set of oligonucleotides derived from the JNK2 sequence (Table 9) for biological activity, a cDNA clone of JNK2 (Kallunki et al., Genes & Development, 1994, 8, 2996) was radiolabeled and used as a JNK2-specific probe in Northern blots. […]

[1] = JNK2 mRNA, A549 cells, 400 nM oligonucleotide
[2] = JNK2 mRNA dose response, 100 nM
[3] = JNK2 mRNA dose response, 200 nM
[4] = JNK2 mRNA dose response, 400 nM
[5] = JNK2 mRNA time course, t=0 h after 4 hour treatment
[6] = JNK2 mRNA, chemically modified oligonucleotides, dose 100 nM
[7] = JNK2 mRNA, chemically modified oligonucleotides, dose 400 nM
[8] = JNK2 mRNA, A549 cells, 400 nM oligonucleotide, 100% - % expression

Substance: 12558 (antisense dG*dT*dT*dT*dC*dA*dG*dA*dT*dC*dC*dC*dT*dC*dG*dC*dC*dC*dG*dC) [compound 12558]
- % EXPRESSION [1]: 15%

Substance: 12559 (antisense dT*dG*dC*dA*dG*dC*dA*dC*dA*dA*dA*dC*dA*dA*dT*dC*dC*dC*dT*dT) [compound 12559]
- % EXPRESSION [1]: 28%

Substance: 12560 (antisense GTCCGGGCCAGGCCAAAGTC; DNA, all phosphorothioate, methylation of C not given here) [compound 12560]
- Normalized % Control (JNK2 mRNA dose response, 50 nM): 68.1%
- Normalized % Control [2]: 50.0%
- Normalized % Control [3]: 25.1%
- Normalized % Control [4]: 14.2%
- % INHIBITION [5]: 79.8%
- Normalized % Control [5]: 20.2%
- % INHIBITION (JNK2 mRNA time course, t=4 h): 88.9%
- Normalized % Control (JNK2 mRNA time course, t=4 h): 11.1%
- % INHIBITION (JNK2 mRNA time course, t=12 h): 78.2%
- Normalized % Control (JNK2 mRNA time course, t=12 h): 21.8%
- % INHIBITION (JNK2 mRNA time course, t=48 h): 57.3%
- Normalized % Control (JNK2 mRNA time course, t=48 h): 42.7%
- % INHIBITION (JNK2 mRNA time course, t=72 h): (0.0) %
- Normalized % Control (JNK2 mRNA time course, t=72 h): 116.8%
- % EXPRESSION [1]: 11%
- Normalized % Control [6]: 62.1%
- Normalized % Control [7]: 31.4%

Substance: 12561 (antisense dC*dA*dG*dG*dA*dT*dG*dA*dC*dT*dT*dC*dG*dG*dG*dC*dG*dC*dC*dC) [compound 12561]
- % EXPRESSION [1]: 60%
- % INHIBITION [8]: 40%

Substance: 12562 (antisense dG*dC*dT*dC*dT*dC*dC*dC*dA*dT*dG*dA*dT*dG*dC*dA*dA*dC*dC*dC) [compound 12562]
- % EXPRESSION [1]: 89%
- % INHIBITION [8]: 11%

Substance: 12563 (antisense dA*dT*dG*dG*dG*dT*dG*dA*dC*dG*dC*dA*dG*dA*dG*dC*dT*dT*dC*dG) [compound 12563]
- % EXPRESSION [1]: 22%

Substance: 12564 (antisense dC*dT*dG*dC*dT*dG*dC*dA*dT*dC*dT*dG*dA*dA*dG*dG*dC*dT*dG*dA) [compound 12564]
- % EXPRESSION [1]: 28%

Substance: 12565 (antisense dT*dG*dA*dG*dA*dA*dG*dG*dA*dG*dT*dG*dG*dC*dG*dT*dT*dG*dC*dT) [compound 12565]
- % EXPRESSION [1]: 19%

Substance: 12566 (antisense dT*dG*dC*dT*dG*dT*dC*dT*dG*dT*dG*dT*dC*dT*dG*dA*dG*dG*dC*dC) [compound 12566]
- % EXPRESSION [1]: 42%

Substance: 12568 (antisense dC*dA*dT*dT*dT*dC*dA*dG*dG*dC*dC*dC*dA*dC*dG*dG*dA*dG*dG*dT) [compound 12568]
- % EXPRESSION [1]: 20%

Substance: 12569 (antisense dG*dG*dT*dC*dT*dG*dA*dA*dT*dA*dG*dG*dG*dC*dA*dA*dG*dG*dC*dA) [compound 12569]
- % EXPRESSION [1]: 13%

Substance: 12570 (antisense dG*dG*dG*dC*dA*dA*dG*dT*dC*dC*dA*dA*dG*dC*dA*dA*dG*dC*dA*dT) [compound 12570]
- % EXPRESSION [1]: 24%

Substance: 14318 (sense GACTTTGGCCTGGCCCGGAC; DNA, all phosphorothioate, methylation of C not given here) [compound 14318]
- Normalized % Control (JNK2 mRNA dose response, 50 nM): 87.1%
- Normalized % Control [2]: 89.8%
- Normalized % Control [3]: 92.1%
- Normalized % Control [4]: 99.6%

Substance: 14319 (GTGCGCGCGAGCCCGAAATC; DNA, all phosphorothioate, methylation of C not given here) [compound 14319]
- Normalized % Control (JNK2 mRNA dose response, 50 nM): 90.4%
- Normalized % Control [2]: 93.7%
- Normalized % Control [3]: 110.2%
- Normalized % Control [4]: 100.0%

Substance: 15352 (antisense eG*eT*e[5mC]*e[5mC]*eG*eG*eG*e[5mC]*e[5mC]*eA*eG*eG*e[5mC]*e[5mC]*eA*eA*eA*eG*eT*e[5mC]) [compound 15352]
- Normalized % Control [6]: 132.4%
- Normalized % Control [7]: 158.4%

Substance: 15354 (antisense eGeTe[5mC]e[5mC]eG*dG*dG*dC*dC*dA*dG*dG*dC*dC*eAeAeAeGeTe[5mC]) [compound 15354]
- Normalized % Control [6]: 38.3%
- Normalized % Control [7]: 17.1%
- inhibition of JNK2 mRNA expression (chemically modified derivatives of ISIS 12560, 400 nM (text to Table 12)): approximately 80%

Substance: 15355 (antisense eG*eT*e[5mC]*e[5mC]*eG*eG*eG*e[5mC]*e[5mC]*eA*eG*dG*dC*dC*dA*dA*dA*dG*dT*dC) [compound 15355]
- Normalized % Control [6]: 61.3%
- Normalized % Control [7]: 29.1%

Substance: 15356 (antisense dG*dT*dC*dC*dG*dG*dG*dC*dC*eA*eG*eG*e[5mC]*e[5mC]*eA*eA*eA*eG*eT*e[5mC]) [compound 15356]
- Normalized % Control [6]: 38.6%
- Normalized % Control [7]: 11.0%

Substance: 15357 (antisense GTCCGGGCCAGGCCAAAGTC; wingmer: 5' deoxy phosphorothioate wing, 3' MOE phosphodiester wing, wing lengths not given here) [compound 15357]
- Normalized % Control [6]: 42.8%
- Normalized % Control [7]: 13.7%

Substance: 15358 (antisense eGeTe[5mC]e[5mC]eGeGeGe[5mC]e[5mC]eAeG*dG*dC*dC*dA*dA*dA*dG*dT*e[5mC]) [compound 15358]
- Normalized % Control [6]: 47.4%
- Normalized % Control [7]: 29.4%

Substance: GTC-CGG-GCC-AGG-CCA-AAG-TC (GTCCGGGCCAGGCCAAAGTC; chemistry not given here) [ISIS 12560]
- % INHIBITION (JNK2 mRNA time course, t=12 h): greater than or equal to 80%
- % INHIBITION (JNK2 mRNA time course, t=48 h): greater than or equal to 60%
